Literature values in patent US9125900B2 (priority 2005, dated 2015).
Where two headings read alike, the source gives them in different places.

Legend:
[1] = target: 5-HT7 receptor (Homo sapiens, UniProt P34969)
[2] = system: respiratory neurons; settings: for morphine-induced suppression of respiratory neuronal activity: anesthetized rats
[3] = target: 5-HT4a receptor isoform (Homo sapiens, UniProt Q13639)
[4] = system: hypoxic goats
[5] = system: respiratory neurons

Chain of 5-HT7 receptor (P34969 whole entry): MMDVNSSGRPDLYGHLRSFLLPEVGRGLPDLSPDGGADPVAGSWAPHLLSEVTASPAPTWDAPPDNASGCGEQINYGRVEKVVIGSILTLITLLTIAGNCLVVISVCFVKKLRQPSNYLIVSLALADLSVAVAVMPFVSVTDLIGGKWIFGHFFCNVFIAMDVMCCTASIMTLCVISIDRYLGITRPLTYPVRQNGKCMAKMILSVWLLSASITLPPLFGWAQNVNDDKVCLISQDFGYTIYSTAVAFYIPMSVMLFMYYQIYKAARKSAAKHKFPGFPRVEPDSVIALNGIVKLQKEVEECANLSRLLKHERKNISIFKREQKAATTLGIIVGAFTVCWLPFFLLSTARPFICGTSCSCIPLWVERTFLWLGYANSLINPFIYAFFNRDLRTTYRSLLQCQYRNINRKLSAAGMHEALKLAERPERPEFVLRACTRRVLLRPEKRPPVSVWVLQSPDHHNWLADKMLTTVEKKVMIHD
Chain of 5-HT4a receptor isoform (Q13639 1-387 isoform Q13639-2): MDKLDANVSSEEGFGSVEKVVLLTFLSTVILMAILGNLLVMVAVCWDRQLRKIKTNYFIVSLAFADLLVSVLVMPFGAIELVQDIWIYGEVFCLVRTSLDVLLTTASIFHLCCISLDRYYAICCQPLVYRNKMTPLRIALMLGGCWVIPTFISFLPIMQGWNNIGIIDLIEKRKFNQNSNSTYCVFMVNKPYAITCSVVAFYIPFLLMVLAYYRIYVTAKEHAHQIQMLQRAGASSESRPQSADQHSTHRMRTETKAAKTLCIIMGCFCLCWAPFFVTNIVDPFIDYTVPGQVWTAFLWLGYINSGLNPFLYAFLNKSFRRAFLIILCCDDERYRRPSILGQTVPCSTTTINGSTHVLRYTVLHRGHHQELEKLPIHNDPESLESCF

Compound: O=C1CC2(CCCC2)CC(=O)N1CCCCN1CCN(c2ncccn2)CC1 [buspirone]
- receptor activity [1]: no effect on the 5-HT7 receptor
- morphine-induced suppression of respiratory neuronal activity [2]: reversed the suppression

Compound: COc1cc(N)c(Cl)cc1C(=O)NC1CN2CCC1CC2.Cl (racemic) [zacopride, 4-amino-N-1-azabicyclo[2.2.2] oct-3-yl-5-chloro-2-methoxybenzamide hydrochloride]
- receptor activity [3]: agonist of the 5-HT4a receptor isoform

Compound: CCCN(CCC)C1CCc2cccc(O)c2C1 (racemic) [8-OH-DPAT, 8-hydroxy-2-(di-n-propylamino)tetralin]
- respiratory frequency or ventilation rate [4]: did not increase respiratory frequency or ventilation rate
- depressant effects on respiratory neurons ([2]; 100 μg/kg, rats): no depressant effects on rat respiratory neurons
- morphine-induced suppression of respiratory neuronal activity [2]: reversed the morphine-induced suppression of neuronal activity
- phrenic nerve discharges ([5]; anesthetized cats, higher doses 50 and 90 μg/kg): suppressed phrenic nerve discharges
- phrenic nerve discharges ([5]; anesthetized cats, lower doses 10-50 μg/kg): increased the frequency of phrenic nerve discharges
- pentobarbital- and ketamine-induced suppression of respiratory neurons ([5]; cats): reverse pentobarbital- and ketamine-induced suppression of respiratory neurons
- phrenic nerve discharges ([5]; cats, 20 μg/kg intravenously): phrenic nerve discharges were decreased
